In patent US20210251983A1, “METHODS OF TREATMENT WITH BUPRENORPHINE” (BioDelivery Sciences International, Inc., priority 2020, published 2021):
Entries after “also recorded” stand apart in the source; their conditions may differ.

Key:
[1] = system: pupil diameter; assay: Pupillometry during VRH testing; assay type: in vivo, human; settings: time after dosing
[2] = Treatment-emergent adverse events
[3] = Pharmacokinetic assessment - abuse quotient (plasma Cmax, Tmax, AUC0-last, AQ); settings: for AUC(0-t) / Cmax / Tmax: both, human, plasma, oral
[4] = system: respiratory drive; assay: Ventilatory response to hypercapnia (VRH) test of respiratory drive, phase I placebo-controlled crossover trial

## COc1ccc2c3c1O[C@H]1C(=O)CC[C@@]4(O)[C@@H](C2)N(C)CC[C@]314.Cl [IR Oxycodone, oxycodone hydrochloride]
[1]; oxycodone 30 mg
  initial onset of statistically significant miosis (relative to placebo): 0.5 h
[1]; oxycodone 60 mg
  initial onset of statistically significant miosis (relative to placebo): 0.5 h
[2]; all doses
  treatment-emergent adverse events: produced some adverse events
[2]; oxycodone 60 mg
  treatment-emergent adverse events: highest percentage of adverse events in all categories
[3]; BBF 300-900 μg, IR oxycodone 30, 60 mg
  Cmax dependence on dose: increased proportionally with dose
[3]; 30 mg
  AUC(0-t): 216 ng·h/mL
  Cmax: 65.8 ng/mL
  Tmax: 1.2 h
[3]; 60 mg
  AUC(0-t): 435 ng·h/mL
  Cmax: 132 ng/mL
  Tmax: 1.2 h
[4]; across all doses tested (BBF 300-900 μg; oxycodone 30, 60 mg), hydrochloride
  effect on respiratory drive (Emax) relative to placebo: dose-dependent decrease in respiratory drive; also recorded: decreased respiratory drive in a dose-dependent fashion
[4]; oral oxycodone 30 mg, P=0.668
  least square mean difference in Emax (maximum minute ventilation) versus placebo: −828.5
[4]; oral oxycodone 60 mg, P=0.008
  least square mean difference in Emax (maximum minute ventilation) versus placebo: −5188.6
[4]; oxycodone 30 mg
  minute ventilation relative to placebo: significant (P<0.05) decrease at one hour post-dose
[4]; oxycodone 30 mg, 1 hour post-dose
  Peak Expiratory Flow Rate (PEFR) relative to placebo: significant (P<0.05) decrease in PEFR at 1 hour post-dose
[4]; oxycodone 60 mg
  minute ventilation relative to placebo: significant (P<0.05) decreases at 1 hour, 2 hour, and 4 hours post-dose
[4]; oxycodone 60 mg, 30 minutes post-dose
  Peak Expiratory Flow Rate (PEFR) relative to placebo: significant (P<0.05) decrease at 30 minutes
[4]; oxycodone 60 mg, 1 hour post-dose
  Peak Expiratory Flow Rate (PEFR) relative to placebo: significant (P<0.05) decrease in PEFR at 1 hour post-dose
[4]; oxycodone 60 mg, approximately 1.5 hours after dosing
  oxygen saturation level, one subject (adverse event): 86%
